This note sets out measurements from paper PMC5435703 (Scientific Reports, 2017).

In general, MIC refers to the least concentration at which growth counts as inhibited. The term IC50 denotes the point on the concentration scale where inhibition reaches its midpoint.

Molecules are shown by their SMILES. ≈ marks a conversion by molar mass, not a printed value. Where two headings read alike, the source gives them in different places.

One data set has as its system MRSA BAA-44. Put plainly: MIC broth microdilution assay. The following applies: Staphylococcus aureus; Table 1; read-out: MIC MRSA BAA-44. The data set is classed as cell-based. On the technique in general: Dilution methods test growth across graded concentrations, often in twofold steps.
For another data set, the system named is MRSA-2. Put plainly: MIC broth microdilution assay. The data set is classed as cell-based, Staphylococcus aureus. The following applies: Staphylococcus aureus, MRSA; Table 1; read-out: MIC MRSA-2.
For data set [1], the system named is MRSE 35984. Put plainly: MIC broth microdilution assay. The data set is classed as cell-based, Staphylococcus epidermidis. To be noted: Staphylococcus epidermidis, MRSE.
The next data set concerns S. epi 12228. Kind of data set: MIC broth microdilution assay. The data set is classed as cell-based, Staphylococcus epidermidis.
In data set [2] the test system is VRE 700221. Kind of data set: MIC broth microdilution assay. The data set is classed as cell-based, Enterococcus faecium. To be noted: Enterococcus, VRE.
Another data set has as its system MRSA-1. Kind of data set: MIC broth microdilution assay. The data set is classed as cell-based, Staphylococcus aureus. The following applies: Staphylococcus aureus, MRSA; Table 1; read-out: MIC MRSA-1.
The test system of data set [3] is MRSA BAA-1707. Kind of data set: MIC broth microdilution assay. The following applies: Staphylococcus aureus. The data set is classed as cell-based, Staphylococcus aureus.
A short description of data set [4]: LDH release assay for HeLa cytotoxicity. The data set is classed as cell-based. To be noted: human, HeLa cells; LDH release, 24 hours; tested at 25, 50 and 100 µM; read-out: HeLa Cytotox. IC50. In general terms: Release of lactate dehydrogenase indicates damage to the cell membrane.
The nature of data set [5]: Hemolysis assay with red blood cells. To be noted: human, pH 7.2.
Data set [6] relates to MRSA BAA-1707. Kind of data set: Calgary Biofilm Device (CBD) MBC/MBEC assay. The data set is classed as cell-based, Staphylococcus aureus. The following applies: for MRSA BAA-1707 MBEC: biofilm eradication.
The test system of data set [7] is VRE 700221. Kind of data set: Calgary Biofilm Device (CBD) MBC/MBEC assay. The data set is classed as cell-based, Enterococcus faecium. To be noted: Enterococcus, VRE; CBD, planktonic killing; read-out: VRE 700221 MBC.
The next data set has as its system MtB H37Ra. Kind of data set: MIC assay for Mycobacterium tuberculosis. To be noted: 168 h, seven days. The data set is classed as cell-based.
Data set [8] deals with MRSE 35984. Put plainly: Calgary Biofilm Device (CBD) MBC/MBEC assay. To be noted: Staphylococcus epidermidis, MRSE; CBD, planktonic killing; read-out: MRSE 35984 MBC. The data set is classed as cell-based, Staphylococcus epidermidis.
Where [9] appears, read: Table 1, read-out: MIC MRSE 35984.
The mark [10] stands for this setting: Staphylococcus epidermidis, 12228, Table 1, read-out: MIC S. epi 12228.
Setting [11] is: Table 1, read-out: MIC VRE 700221.
The mark [12] stands for this setting: Table 1, three independent experiments, read-out: MIC MRSA BAA-1707.
The mark [13] stands for this setting: single plate shown as picture, read-out: MIC (µM), MIC Assay against MRSA BAA-1707.
Setting [14] is: Table 3, read-out: MRSA BAA-1707 MIC.
[15] abbreviates: Table 3, read-out: MRSE 35984 MIC.
Setting [16] is: Table 3, read-out: VRE 700221 MIC.

`Cc1cc(Br)c(O)c2nc3cccc(Cl)c3nc12` [HP 11]: the MIC in the data set with MRSA BAA-44 came to 3.13 µM (≈ 1.01 µg/mL); in the data set on MRSA-2 it was 3.13 µM (≈ 1.01 µg/mL); in the data set on MRSE 35984 [1] (setting [9]) it was 1.56 µM (≈ 0.505 µg/mL); in the data set on S. epi 12228 (setting [10]) it was 1.56 µM (≈ 0.505 µg/mL); in the data set with VRE 700221 [2] (setting [11]), 3.13 µM (≈ 1.01 µg/mL).
On to `Cc1cc(Br)c(O)c2nc3cc(Cl)ccc3nc12` [HP 12], for which the MIC was 75 µM (≈ 24.3 µg/mL) with MRSA-1 and 12.5 µM (≈ 4.04 µg/mL) with VRE 700221 [2] (setting [11]).
For the molecule `Cc1cc(Br)c(O)c2nc3cccc(Br)c3nc12` [HP 13], the minimal inhibitory concentration (MIC) in the data set with MRSA BAA-1707 [3] (setting [12]) is 1.17 µM (≈ 0.431 µg/mL); in the data set with MRSA BAA-1707 [3] (setting [13]), 0.78 µM (≈ 0.287 µg/mL); in the data set with MRSA-2, 2.35 µM (≈ 0.865 µg/mL).
For `Cc1cc(Br)c(O)c2nc3cc(Br)ccc3nc12` [HP 14], the MIC in the data set with MRSA BAA-1707 [3] (setting [12]) is 9.38 µM (≈ 3.45 µg/mL); in the data set with MRSA-1, 75 µM (≈ 27.6 µg/mL); in the data set with MRSE 35984 [1] (setting [9]) it was 75 µM (≈ 27.6 µg/mL).
Take `Oc1c(Br)cc(Br)c2nc3ccc(Oc4ccccc4)cc3nc12` [HP 16]: the MIC with MRSA-1 came to 25 µM (≈ 11.2 µg/mL).
Consider `Cc1ccc2nc3c(O)c(Br)cc(Br)c3nc2c1C` [HP 19], for which the MIC turned out to be 0.15 µM (≈ 0.0573 µg/mL) in the data set with MRSA BAA-1707 [3] (setting [12]); 0.15 µM (≈ 0.0573 µg/mL) in the data set with MRSA BAA-1707 [3] (setting [14]); 0.1 µM (≈ 0.0382 µg/mL) with MRSA BAA-1707 [3] (setting [13]); 0.3 µM (≈ 0.115 µg/mL) in the data set on MRSE 35984 [1] (setting [15]); 0.2 µM (≈ 0.0764 µg/mL) with MRSE 35984 [1] (single plate shown as picture, read-out: MIC (µM), MIC Assay Against MRSE 35984); 6.25 µM (≈ 2.39 µg/mL) in the data set on S. epi 12228 (setting [10]). In addition, the MIC was 6.25 µM (≈ 2.39 µg/mL) in the data set with S. epi 12228 (Staphylococcus epidermidis, 12228, single plate shown as picture, read-out: MIC (µM), MIC Assay Against S. epidermidis 12228); 0.15 to 1.56 µM (≈ 0.0573 to 0.596 µg/mL) in the data set on VRE 700221 [2] (setting [11]); 0.15 µM (≈ 0.0573 µg/mL) with VRE 700221 [2] (setting [16]); 0.2 µM (≈ 0.0764 µg/mL) with VRE 700221 [2] (single plate shown as picture, read-out: MIC (µM), MIC Assay Against VRE 700221). For the same molecule, the IC50 at 24 h in data set [4] was above 100 µM. This molecule gave a hemolysis at 1 h, 200 µM in [5] of 5.3%.
With `Cc1ccc2nc3c(Br)cc(Br)c(O)c3nc2c1` [HP 20], the MIC in the data set on MRSA BAA-44 came to […]; in the data set on MRSA-2 it was […]; with MRSE 35984 [1] (setting [9]), 6.25 µM (≈ 2.3 µg/mL).
For `CCCCCCCCCC(=O)N[C@@H](Cc1c[nH]c2ccccc12)C(=O)N[C@H](CC(N)=O)C(=O)N[C@@H](CC(=O)O)C(=O)N[C@@H]1C(=O)NCC(=O)N[C@@H](CCCN)C(=O)N[C@@H](CC(=O)O)C(=O)N[C@H](C)C(=O)N[C@@H](CC(=O)O)C(=O)NCC(=O)N[C@H](CO)C(=O)N[C@@H]([C@H](C)CC(=O)O)C(=O)N[C@@H](CC(=O)c2ccccc2N)C(=O)O[C@@H]1C` [daptomycin, reference compound], the MIC in the data set with MRSA BAA-1707 [3] (setting [12]) amounted to 3.13 µM (≈ 5.07 µg/mL); in the data set with MRSA BAA-1707 [3] (setting [14]), 3.13 µM (≈ 5.07 µg/mL); in the data set on MRSA BAA-44 it was 18.8 µM (≈ 30.5 µg/mL); in the data set with MRSE 35984 [1] (setting [9]), 12.5 µM (≈ 20.3 µg/mL); with MRSE 35984 [1] (setting [15]), 12.5 µM (≈ 20.3 µg/mL); with S. epi 12228 (setting [10]), 6.25 µM (≈ 10.1 µg/mL). Further, the MIC with VRE 700221 [2] (setting [11]) and with VRE 700221 [2] (setting [16]) was 125 µM (≈ 203 µg/mL) in each case. Moreover, the “MRSA BAA-1707 MBEC” value in the data set with MRSA BAA-1707 [6] (CBD, 24 hours treatment) is listed as above 2000 µM. The MBC in the data set with MRSA BAA-1707 [6] (Staphylococcus aureus, 24 h, CBD, planktonic killing, 24 hours treatment, read-out: MRSA BAA-1707 MBC) stood at 125 µM (≈ 203 µg/mL); with VRE 700221 [7], 375 µM (≈ 608 µg/mL).
Turning to `CC(=O)NC[C@H]1CN(c2ccc(N3CCOCC3)c(F)c2)C(=O)O1` [linezolid, reference compound], the MIC in the data set on MRSA BAA-1707 [3] (setting [12]) stood at 12.5 µM (≈ 4.22 µg/mL); in the data set on MRSA BAA-1707 [3] (setting [14]), 12.5 µM (≈ 4.22 µg/mL); in the data set with MRSA-2 it was 3.13 µM (≈ 1.06 µg/mL); in the data set on MRSE 35984 [1] (setting [9]), 3.13 µM (≈ 1.06 µg/mL); with MRSE 35984 [1] (setting [15]), 3.13 µM (≈ 1.06 µg/mL); in the data set on VRE 700221 [2] (setting [11]), 3.13 µM (≈ 1.06 µg/mL). In addition, in the data set with VRE 700221 [2] (setting [16]), the MIC was found to be 3.13 µM (≈ 1.06 µg/mL). The “MRSA BAA-1707 MBEC” value in the data set on MRSA BAA-1707 [6] (CBD, 24 hours treatment) is above 2000 µM. The MBC with MRSA BAA-1707 [6] (Staphylococcus aureus, 24 h, read-out: MRSA BAA-1707 MBC) came to 31.3 µM (≈ 10.6 µg/mL). Moreover, in the data set with MRSA BAA-1707 [6] (Staphylococcus aureus, 24 h, read-out: MRSA BAA-1707 MBEC), the minimal effective concentration is above 2000 µM.
Molecule `[H]/N=C(/N)N[C@H]1[C@H](O)[C@@H](O)[C@H](O[C@@H]2O[C@@H](C)[C@](O)(C=O)[C@H]2O[C@@H]2O[C@@H](CO)[C@H](O)[C@@H](O)[C@@H]2NC)[C@@H](N/C(N)=N\[H])[C@@H]1O` [streptomycin, reference compound] displayed an MIC in the data set on MtB H37Ra of 1.32 µM (≈ 0.768 µg/mL).
As for `CN[C@H](CC(C)C)C(=O)N[C@H]1C(=O)N[C@@H](CC(N)=O)C(=O)N[C@H]2C(=O)N[C@H]3C(=O)N[C@H](C(=O)N[C@H](C(=O)O)c4cc(O)cc(O)c4-c4cc3ccc4O)[C@H](O)c3ccc(c(Cl)c3)Oc3cc2cc(c3O[C@@H]2O[C@H](CO)[C@@H](O)[C@H](O)[C@H]2O[C@H]2C[C@](C)(N)[C@H](O)[C@H](C)O2)Oc2ccc(cc2Cl)[C@H]1O` [vancomycin, reference compound], the MIC in the data set on S. epi 12228 (Staphylococcus epidermidis, 12228, read-out: MIC S. epi 12228) is 1.17 µM (≈ 1.7 µg/mL); with VRE 700221 [2] (read-out: MIC VRE 700221) it was above 100 µM; in the data set with VRE 700221 [2] (read-out: VRE 700221 MIC) it was above 100 µM. Further, in the data set on MRSA BAA-1707 [6] (Figure 7A, single CBD plate), the “MRSA-1707 Biofilm Eradication MBEC” value is above 2000 µM. Besides, the MBC in the data set on MRSA BAA-1707 [6] (Staphylococcus aureus, Figure 7A, single CBD plate, read-out: MRSA-1707 Planktonic Eradication MBC) is 3.9 µM (≈ 5.65 µg/mL); in the data set on MRSA BAA-1707 [6] (Staphylococcus aureus, CBD, planktonic killing, 24 hours treatment, read-out: MRSA BAA-1707 MBC), 3.9 µM (≈ 5.65 µg/mL); with MRSE 35984 [8], 3 µM (≈ 4.35 µg/mL); in the data set on VRE 700221 [7], above 200 µM.
